Blank lines part the entries; values can stand above or below the compound they belong to.
Legend:
HEK293 = test: (§1) Cytotoxicity against HEK293 cells after 72 hrs by MTT assay; type: cell-based; conditions: human, hek293, 72 h
MDA-MB-231 = test: Cytotoxicity against human MDA-MB-231 cells after 72 hrs by MTT assay; type: functional, cell-based; conditions: MDA-MB-231, 72 h
MCF7 = test: Cytotoxicity against human MCF7 cells after 72 hrs by MTT assay; type: functional, cell-based; conditions: MCF7, 72 h
HT-29 = test: Cytotoxicity against human HT-29 cells after 72 hrs by MTT assay; type: functional, cell-based; conditions: HT-29, 72 h
[1] = target: T1, NAD-dependent protein deacetylase sirtuin-1 (Homo sapiens, UniProt Q96EB6); test: Inhibition of SIRT1 (unknown origin) using AMC-Arg-His-Lys-Lys(Ac) substrate assessed as deacetylation of substrate by fluorimetric enzyme assay
T1 sequence (Q96EB6 whole entry): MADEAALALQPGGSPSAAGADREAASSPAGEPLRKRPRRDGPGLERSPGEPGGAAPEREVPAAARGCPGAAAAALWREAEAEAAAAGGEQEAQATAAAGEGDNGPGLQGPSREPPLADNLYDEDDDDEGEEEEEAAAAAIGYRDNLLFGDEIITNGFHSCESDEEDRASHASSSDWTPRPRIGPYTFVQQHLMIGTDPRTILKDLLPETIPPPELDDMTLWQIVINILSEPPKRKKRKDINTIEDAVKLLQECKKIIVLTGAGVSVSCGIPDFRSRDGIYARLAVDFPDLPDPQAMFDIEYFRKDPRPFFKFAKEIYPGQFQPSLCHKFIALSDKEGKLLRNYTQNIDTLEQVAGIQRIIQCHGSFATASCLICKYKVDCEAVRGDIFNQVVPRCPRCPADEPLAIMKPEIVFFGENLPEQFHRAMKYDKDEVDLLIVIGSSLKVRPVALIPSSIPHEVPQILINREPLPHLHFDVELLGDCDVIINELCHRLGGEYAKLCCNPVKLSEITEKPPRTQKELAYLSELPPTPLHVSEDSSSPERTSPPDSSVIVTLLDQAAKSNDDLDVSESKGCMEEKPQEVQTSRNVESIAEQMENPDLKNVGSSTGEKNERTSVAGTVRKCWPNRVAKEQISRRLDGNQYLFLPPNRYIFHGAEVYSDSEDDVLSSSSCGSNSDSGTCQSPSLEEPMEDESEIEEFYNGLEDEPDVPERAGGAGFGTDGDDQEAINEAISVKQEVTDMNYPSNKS

[2] = as §1; type: cell-based; conditions: human, HEK293 cells; read-out: GI

IC50 [1]: 35.2 µM
Compound: CC1=NOC(=O)/C1=C/c1c(COCc2ccc(C(F)(F)F)cc2)n(C)c2ccc(F)cc12
Activity (HEK293): Non-toxic
IC50 (MDA-MB-231): 8.23 µM
IC50 (MCF7): 7.72 µM
IC50 (HT-29): 4.82 µM

IC50 [1]: 37.4 µM
Compound: Cn1c(COCc2ccc(C(F)(F)F)cc2)c(/C=C2/C(=O)ON=C2C(F)(F)F)c2cc(F)ccc21
Activity (HEK293): Non-toxic
IC50 (MDA-MB-231): 5.03 µM
IC50 (MCF7): 5.51 µM
IC50 (HT-29): 2.59 µM

Compound: CC1=NOC(=O)/C1=C/c1c(C(=O)NCc2ccc(C)cc2)n(C)c2ccc(F)cc12
Activity (HEK293): Non-toxic

Compound: CC1=NOC(=O)/C1=C/c1c(C(=O)NCc2ccc(OC(F)(F)F)cc2)n(C)c2ccc(F)cc12
Activity (HEK293): Non-toxic

Compound: CC1=NOC(=O)/C1=C/c1c(C(=O)Nc2ccc(OC(F)(F)F)cc2)n(C)c2ccc(F)cc12
Activity (HEK293): Non-toxic

Compound: CC1=NOC(=O)/C1=C/c1c(C(=O)NCc2ccc(F)cc2)n(C)c2ccc(F)cc12
Activity (HEK293): Non-toxic

Compound: Cn1c(C(=O)NCc2ccc(F)cc2)c(/C=C2/C(=O)ON=C2C(F)(F)F)c2cc(F)ccc21
Activity (HEK293): Non-toxic

Compound: CC1=NOC(=O)/C1=C/c1c(C(=O)N2CCOCC2)n(C)c2ccc(F)cc12
Activity (HEK293): Non-toxic

Compound: Cn1c(C(=O)N2CCOCC2)c(/C=C2/C(=O)ON=C2C(F)(F)F)c2cc(F)ccc21
Activity (HEK293): Non-toxic

Compound: CCN1CCN(C(=O)c2c(/C=C3/C(=O)ON=C3C)c3cc(F)ccc3n2C)CC1
Activity (HEK293): Non-toxic

Compound: CCN1CCN(C(=O)c2c(/C=C3/C(=O)ON=C3C(F)(F)F)c3cc(F)ccc3n2C)CC1
inhibition at 72 h [2]: 30%

Compound: CC1=NOC(=O)/C1=C/c1c(COCc2cn(Cc3ccc(C(F)(F)F)cc3)nn2)n(C)c2ccc(F)cc12
inhibition at 72 h [2]: 30%

Compound: CC1=NOC(=O)/C1=C/c1c(COCc2cn(Cc3ccc(OC(F)(F)F)cc3)nn2)n(C)c2ccc(F)cc12
Activity (HEK293): Non-toxic

Compound: Cn1c(COCc2cn(Cc3ccc(OC(F)(F)F)cc3)nn2)c(/C=C2/C(=O)ON=C2C(F)(F)F)c2cc(F)ccc21
Activity (HEK293): Non-toxic

Compound: Cn1c(COCc2cn(Cc3ccc([N+](=O)[O-])cc3)nn2)c(/C=C2/C(=O)ON=C2C(F)(F)F)c2cc(F)ccc21
Activity (HEK293): Non-toxic

Compound: CC1=NOC(=O)/C1=C/c1c(COCc2cn(Cc3ccc(C#N)cc3)nn2)n(C)c2ccc(F)cc12
Activity (HEK293): Non-toxic

Compound: Cn1c(COCc2cn(Cc3ccc(C#N)cc3)nn2)c(/C=C2/C(=O)ON=C2C(F)(F)F)c2cc(F)ccc21
Activity (HEK293): Non-toxic

Compound: CC1=NOC(=O)/C1=C/c1c(COCc2ccc(C#N)cc2)n(C)c2ccc(F)cc12
Activity (HEK293): Non-toxic

Compound: Nc1ccn([C@@H]2O[C@H](CO)[C@@H](O)C2(F)F)c(=O)n1 [GEMCITABINE]
IC50 (MDA-MB-231): 0.65 µM
IC50 (MCF7): 0.15 µM
IC50 (HT-29): 0.52 µM

From ChEMBL document CHEMBL3588849, “New indole-isoxazolone derivatives: Synthesis, characterisation and in vitro SIRT1 inhibition studies” (Bioorg Med Chem Lett, 2015)
